Experimental data taken from article PMC6270837, “Preparation and Biological Properties of Ring-Substituted Naphthalene-1-Carboxanilides” (Molecules, 2014).
“Also recorded” adds a separate entry of the source. Read-outs that look alike come from different tables or passages of the source.

Key:
[1] = Lipophilicity determination by RP-HPLC (capacity factor, log k); assay type: physicochemical; conditions: end-capped C18, isocratic MeOH 60%/H2O 40%
Description: Lipophilicity is a property that has a major effect on bioavailability, biotransformation as well as pharmacological activity, because drugs cross biological membranes through passive transport, which strongly depends on their lipophilicity. Lipophilicity of the studied compounds was determined by RP‑HPLC as capacity factor logarithm (log k). The procedure was performed under isocratic conditions with methanol as an organic modifier in the mobile phase using an end-capped non-polar C18 stationary RP column. The results of ring-substituted naphthalene-1-carboxanilides 1–8c are shown in Table 1 and illustrated in Figure 1. […] Lipophilicity was also calculated as log P using ACD/Percepta ver. 2012 (Advanced Chemistry Development, Inc., Toronto, ON, Canada).
A HPLC system Agilent 1200 equipped with DAD detector (Agilent, USA) was used. A chromatographic column Symmetry® C18 5 μm, 4.6 × 250 mm, Part No. WAT054275 (Waters Corp., Milford, MA, USA) was used. The HPLC separation process was monitored and evaluated by EZChrom Elite software ver. 3.3.2 (Agilent, USA). Isocratic elution by a mixture of MeOH p.a. (60%) and H2O-HPLC Mili-Q grade (40%) as a mobile phase was used. The total flow of the column was 1.0 mL/min, injection 20 μL, column temperature 40 °C, and sample temperature 10 °C. The detection wavelength 210 nm was chosen. The KI methanolic solution was used for the dead time (tD) determination. Retention times (tR) were measured in minutes. The capacity factors k were calculated according to formula k = (tR − tD)/tD, where tR is the retention time of the solute, whereas tD denotes the dead time obtained using an unretained analyte. Log k, calculated from the capacity factor k, is used as the lipophilicity index converted to log P scale.

[2] = system: Mycobacterium avium subsp. paratuberculosis CIT03; assay: In vitro antimycobacterial evaluation (MIC/IC90, alamarBlue); assay type: cell-based; conditions: for antimycobacterial activity relative to ciprofloxacin / antimycobacterial activity relative to rifampicin: M. avium subsp. paratuberculosis, comparison of MICs; for MIC: Mycobacterium avium
Description: The MIC/IC90 value is routinely and widely used in bacterial assays and is a standard detection limit according to the Clinical and Laboratory Standards Institute.
A well-characterized clinical isolate of Mycobacterium avium subsp. paratuberculosis (CIT03) was grown in Middlebrook broth (MB), supplemented with Oleic-Albumin-Dextrose-Catalase supplement (OADC, Becton, Dickinson and Comp., Franklin Lakes, NJ, USA) and mycobactin J (2 µg/mL). Identification of this isolate was performed using biochemical and molecular protocols. At log phase growth, a culture sample (10 mL) was centrifuged at 15,000 rpm/20 min using a bench top centrifuge (Model CR 4-12, Jouan Inc., Winchester, VA, USA). Following removal of the supernatant, the pellet was washed in fresh Middlebrook 7H9GC broth and re-suspended in fresh supplemented MB (10 mL). The turbidity was adjusted to match McFarland standard No. 1 (3 × 10^8 cfu) with MB broth. A further 1:20 dilution of the culture was then performed in MB broth. The antimicrobial susceptibility of the mycobacterial species was investigated in a 96-well plate format. In these experiments, sterile deionized water (300 µL) was added to all outer-perimeter wells of the plates to minimize evaporation of the medium in the test wells during incubation. Each evaluated compound (100 µL) was incubated with the mycobacterial species (100 µL). Dilutions of each compound were prepared in duplicate. For all synthesized compounds, final concentrations ranged from 1,000 µg/mL to 8 µg/mL. All compounds were prepared in DMSO and subsequent dilutions were made in supplemented MB. The plates were sealed with parafilm and incubated at 37 °C for 11 days.
Following incubation, a 10% addition of alamarBlue (AbD Serotec, Kidlington, UK) was mixed into each well and readings at 570 nm and 600 nm were taken, initially for background subtraction and subsequently after 24 h re-incubation. […] For non-interfering compounds, a blue colour in the well was interpreted as an absence of growth and a pink colour was scored as growth. Furthermore percent reduction of alamarBlue was calculated to generate quantitative data on cell viability during exposure to antimycobacterial compounds over a period of 5 days. The formula used to determine percent reduction of alamarBlue has been standardized for colorimetric analysis by Abd Serotec.
The MIC value is routinely and widely used in bacterial assays and is a standard detection limit according to the Clinical and Laboratory Standards Institute.

[3] = system: human monocytic leukemia THP-1 cell line; assay: In vitro cytotoxicity assay (LDH); conditions: for LD50: human, 24 h; for lethal effect / toxicity on THP-1 cells: treatment with 30 μmol/L
Description: Human monocytic leukemia THP-1 cells were obtained from the European Collection of Cell Cultures (ECACC, Salisbury, UK; Methods of characterization: DNA Fingerprinting (Multilocus probes) and isoenzyme analysis). These cells were routinely cultured in RPMI 1640 (Lonza, Verviers, Belgium) medium supplemented with 10% fetal bovine serum (FBS, Sigma-Aldrich, St. Louis, MO, USA), 2% L-glutamine, 1% penicillin and streptomycin (Lonza) at 37 °C with 5% CO2. Cells were passaged at approximately one-week intervals. Cells were routinely tested for the absence of mycoplasma (Hoechst 33258 staining method). The tested compounds were dissolved in DMSO (Sigma-Aldrich) and added in five increasing concentrations to the cell suspension in the culture medium. The maximum concentration of DMSO in the assays never exceeded 0.1%. Subsequently, the cells were incubated for 24 h at 37 °C with 5% CO2 to various compound concentrations ranging from […] in RPMI 1640 medium. Cell toxicity was determined using a Cytotoxicity Detection Kit^PLUS Lactate dehydrogenase (LDH) assay kit (Roche Diagnostics, Mannheim, Germany) according to the manufacturer’s instructions, as described previously. For LDH assays, cells were seeded into 96-well plates (5 × 10^4 cells/well in 100 μL culture medium) in triplicate in serum-free RPMI 1640 medium, and measurements at 492 nm wavelength (Synergy 2 Multi-Mode Microplate Reader, BioTek, Winooski, VT, USA) were taken 24 h after the treatment with tested compounds. The median lethal dose values, LD50, were deduced through the production of a dose-response curve. All data were evaluated using GraphPad Prism 5.00 software (GraphPad Software, San Diego, CA, USA).
LDH Test Principle: The LDH activity is determined by a coupled enzymatic reaction, whereby the tetrazolium salt INT is reduced to formazan. An increase in the amount of dead or plasma membrane damaged cells results in an increase of LDH enzyme activity in the culture supernatant. This increase in the amount of enzyme activity in the supernatant directly correlates to the amount of formazan formed during a limited time period.

physchem = conditions: aqueous buffer, kinetic from dmso stock
[4] = system: M. avium subsp. paratuberculosis; assay: MTT assay on mycobacteria; assay type: cell-based, Mycobacterium avium subsp. paratuberculosis; conditions: lowest tested concentration 8 µg/mL (ca. 30 µmol/L), four hours of incubation
Description: Additionally, a standard MTT assay was performed on these same compounds. The MTT assay is a well-characterized method of assessing cell growth through measurement of respiration.
For the MTT assay, the same 96-well plate set up and incubation conditions listed above were used. After the incubation period, a 10% addition of MTT reagent was mixed into each well and incubated at 37 °C for 4 h. The reagent and media were then aspirated from the wells to which 50 µL DMSO was then added and plates were read at 550 nm.

[5] = system: photosynthetic electron transport (PET) in isolated spinach chloroplasts; assay: Inhibition of photosynthetic electron transport (PET) in isolated spinach chloroplasts; assay type: biochemical, Spinacia oleracea L.; conditions: DCPIP photoreduction
Description: The PET-inhibiting activity was expressed by IC50 value, i.e., compound concentration in mol/L causing 50% inhibition of PET.
Chloroplasts were prepared from spinach (Spinacia oleracea L.) according to Masarovicova and Kralova. The inhibition of photosynthetic electron transport (PET) in isolated spinach chloroplasts was determined spectrophotometrically (Genesys 6, Thermo Scientific, USA), using an artificial electron acceptor 2,6-dichlorophenol-indophenol (DCIPP) according to Kralova et al., and the rate of photosynthetic electron transport was monitored as a photoreduction of DCPIP. The measurements were carried out in phosphate buffer (0.02 mol/L, pH 7.2) containing sucrose (0.4 mol/L), MgCl2 (0.005 mol/L) and NaCl (0.015 mol/L). The chlorophyll content was 30 mg/L in these experiments and the samples were irradiated (~100 W/m^2 with 10 cm distance) with a halogen lamp (250 W) using a 4 cm water filter to prevent warming of the samples (suspension temperature 22 °C). The studied compounds were dissolved in DMSO due to their limited water solubility. […] The inhibitory efficiency of the studied compounds was expressed by IC50 values, i.e., by molar concentration of the compounds causing 50% decrease in the oxygen evolution rate relative to the untreated control.

[6] = system: human monocytic leukemia THP-1 cell line; conditions: THP-1 cells; assessed in this line formerly; cited from earlier work
[7] = 264 h, clinical isolate CIT03, 11 days at 37 °C, alamarBlue, MIC = 90% or greater reduction of growth, read-out: MAP MIC/IC90
[8] = clinical isolate CIT03, read-out: MIC
[9] = clinical isolate CIT03, 11 days at 37 °C, alamarBlue, MIC = 90% or greater reduction of growth

SMILES	log k [1]	antimycobacterial activity relative to ciprofloxacin [2]	antimycobacterial activity relative to rifampicin [2]	MIC [2, 7]	LD50 [3]	lethal effect / toxicity on THP-1 cells [3]	solubility (physchem)	MIC [2, 8]	MAP MIC/IC90 [2, 9]	reduction in activity (MTT) [4]	IC50 [5]	LD50 [6]
COc1ccccc1NC(=O)c1cccc2ccccc12 [Compound 2a, N-(2-Methoxyphenyl)naphthalene-1-carboxamide]	0.8013	three-fold higher	two-fold higher	54 µM	>30 µmol/L	did not lead to significant lethal effect; also recorded: insignificant toxicity	≤ 30 µM					
COc1cccc(NC(=O)c2cccc3ccccc23)c1 [Compound 2b, N-(3-Methoxyphenyl)naphthalene-1-carboxamide]	0.6087	three-fold higher	two-fold higher	54 µM	>30 µmol/L	did not lead to significant lethal effect; also recorded: insignificant toxicity	≤ 30 µM	15 µg/mL	54 µM	more than 80%		
Cc1cccc(NC(=O)c2cccc3ccccc23)c1 [Compound 3b, N-(3-Methylphenyl)naphthalene-1-carboxamide]	0.7624	three-fold higher	two-fold higher	57 µM	>30 µmol/L	did not lead to significant lethal effect; also recorded: insignificant toxicity	≤ 30 µM				136 µM	
O=C(Nc1cccc(F)c1)c1cccc2ccccc12 [Compound 4b, N-(3-Fluorophenyl)naphthalene-1-carboxamide]	0.7204	three-fold higher	two-fold higher	57 µM	>30 µmol/L	did not lead to significant lethal effect; also recorded: insignificant toxicity	≤ 30 µM	15 µg/mL	57 µM		131 µM	
CC[C@@]1(O)C(=O)OCc2c1cc1n(c2=O)Cc2cc3ccccc3nc2-1 [camptothecin]												0.16 ± 0.07 µmol/L
